Test results from patent US9927437B2, “Treating neurodegenerative disease” (THE BRIGHAM AND WOMEN'S HOSPITAL, INC., priority 2013, dated 2018).

Tests used:
EAE NOD mice = test: EAE in NOD mice, progressive phase (clinical score, histopathology, body weight); assay type: in vivo; settings: NOD EAE; i.c.v. 1×10^7 IU lentivirus at day 35
B4GALT5/6 = test: Quantification of LacCer levels in the CNS (LC-MS/MS); assay type: in vivo, mouse; settings: NOD EAE; i.c.v. 1×10^7 IU lentivirus at day 35, 10 days after injection
Description: Chemical standards of LacCer (d18:1/16:0) and LacCer (d18:1/18:0) were obtained from Avanti Polar Lipids. Quantification of LacCer (d18:1/16:0) and LacCer (d18:1/18:0) was achieved by LC-MS/MS analysis performed on an Agilent (Agilent Technologies, Santa Clara, Calif.) 6460 triple-quadrupole LC/MS/MS system. The fragments from the [M+H]^+ ions for LacCer and internal standard were subjected to collision induced dissociation and the two major types of fragment ions were monitored via electrospray ionization in the positive ion mode in multiple reaction monitoring (MRM) mode for each ion. These two MRM transitions corresponded to the loss of the neutral lactosyl moiety, and to the formation of the lactose ion. Specifically, the MRM transitions used for quantification for LacCer (d18:1/16:0) and LacCer(d18:1/18:0) were 862.5>[…] and 890.6>548.5, respectively. Secondary confirmatory MRM transitions for LacCer(d18:1/16:0) and LacCer(d18:1/18:0) of 862.5>264.3 and 890.6>264.3 were also monitored. Mass spectrometer parameter settings were gas temp (325° C.), gas flow (12 L/min), nebulizer (25 psi), sheath gas temp (400° C.), sheath gas flow (12 L/min), capillary voltage (4000v), and nozzle voltage (500v). Liquid chromatography conditions with an a Phenomenex Gemini C18 column 4.6×50 mm 5 μm particle size was used for separation. Chromatography method the following flow rate=0.4 mLs/min; solvent A=5 mM ammonium formate in 5% MeOH and 0.1% formic acid v/v/v; solvent B=80% 2-propanol, 15% methanol, 5% water and 0.1% formic acid (v/v/v/v). […] Standard curve mixture was analyzed at various concentrations between 0.10 nM to 3.3 μM in LacCer (d18:1/16:0) and an internal standard concentration of 1 μM. The lower limit of quantification was estimated at 1 nM and a R^2 of 0.9969 was obtained using linear regression analysis. […]
The brain tissue was weighed and homogenized using a Dounce homogenizer (VWR), in the extraction solvent using a Bligh and Dyer type liquid-liquid extraction. […] The dried sample was reconstituted in 100 μl of 2:1 chloroform-methanol, and analyzed using the HPLC-MS.

astrocytes = test: mRNA expression in astrocytes isolated from EAE NOD mice (nCounter, qPCR); assay type: in vivo, mouse; settings: NOD EAE; i.c.v. lentivirus at day 35, qPCR
Description: Mononuclear cells were isolated from the CNS as previously described^50 with minor modifications. Naïve and EAE mice were euthanatized, and then subjected to perfusion through the left ventricle with ice-cold sterile PBS. Brains and spinal cord were then removed, minced and enzymatically dissociated with 0.05% (w/v) collagenase type III (Worthington Biochemical), 0.5% Dispase II (Roche Applied Science), 40 μg/ml DNAse I, 20 mM HEPES in HBSS) for 30 min at 37 C to make a suspension of single cells. Enzymes were inactivated with 20 ml of Ca^2+/Mg^2+-free HBSS containing 2 mM EDTA and 20 mM HEPES. The digested tissue was triturated and passed through a […] cell strainer. Cells were centrifuged and resuspended in 30% isotonic Percoll (GE Healthcare) and 40 μg/ml DNAse I, underlined by 70% isotonic Percoll, and centrifuged at 1000×g at 4° C. for 25 min. Cells were collected from the 70%-30% interphase, and sorted by FACS Aria.
These purification procedures are based on previously described dissociation and purification protocols^50,51. Isolated CNS cells, were incubated with anti-Mouse CD16/CD32 for 15 min on ice to block the Fc receptors, and stained with fluorochrome-conjugated antibody for CD11b (M1/70), CD45(90), CD3 (145-2C11), CD4 (GK1.5), and Ly6C (HK1.4), and Biotion-conjugated GSL I—isolectin B4 (Vector labs), CD105 (N418), CD140a (APA5), CD11c (N418), F4/80 (BM8), O4 (O4, Miltenyi Biotec), and CD19 (eBio1D3), and un-conjugated antibodies recognizing mouse MOG (8-18C5, Millipore), O1 (O1), and Galactocerebroside (mGlaC, Millipore). All antibodies were from Ebioscience, unless otherwise mentioned (clone number, when relevant, in parentheses). Cells were washed and incubated PE-conjugated Streptavidin and R-Phycoerythrin AffiniPure F(ab′)2 fragment of Goat Anti-Mouse IgG+IgM (H+L) (Jackson ImmunoResearch laboratories) for 20 min at 4 C in the dark. Cells were washed, incubated with 7-AAD or Fixable Viability Dye eFluor® 450 (if cells were to be used for intracellular staining), for exclusion of dead cells (FIG. S3A), and sorted as following. Microglia were sorted as CD11b^+ cells with low CD45 expression and low Ly6C (CD11b+/CD45^low/Ly6C^low), while the inflammatory monocytes were considered as CD11b^+/Ly6C^high 52. T-cells were sorted as CD3^+CD4^+ cells. Astrocytes were isolated following the depletion of lymphocytes, microglia, monocytes (FIG. S3B), and oligodendrocytes, and lymphocytes (T-cells, B-cells, and NK cells) (FIG. S3C). […] We confirmed that we had isolated a relatively pure populations of astrocytes by qPCR for the astrocyte markers^44,51 gfap, aldh1l1 and aqp4, and found them to be exclusively expressed in the astrocyte fraction (in a similar expression pattern to that of GFP^+ astrocytes sorted from Tg(GFP-hGFAP) FVB transgenic mice^49) (FIG. S3E). We used an additional cohort of markers to explore for presence of immune cells [microglia/monocytes cells—itgam (CD11b), and emr1 (F4/80), dendritic cells—itgax (CD11c), NK cells—Klrb1c (Nk1.1), T-cells—cd3, and B-cells—cd19], oligodendrocytes (mog, mbp), and neurons (syt1, snap25) (FIG. S3F, G).
100-200 ng of total RNA was hybridized with reporter and capture probes for nCounter Gene Expression code sets (Mouse Inflammation Kit, or a custom made astrocyte-oriented probe set (Table S1)), according to manufacturer's instructions (NanoString Technologies). Data were normalized to spiked positive controls and housekeeping genes (nSolver Analysis system). Transcript counts less than the mean of the negative control transcripts plus 2 standard deviations for each sample were considered background.
Nanostring generated gene expression data were analyzed by use of the Expander 6.06 platform^53. Genes were clustered using the unbiased CLICK algorithm, and each cluster was further analyzed for enrichments in transcription factors binding sites (promoter analysis).

C8-D30 astrocytes = test: In vitro knock-down with shRNA in C8-D30 astrocytes, LPS/IFNγ activation; assay type: cell-based, mouse; settings: lentivirus-delivered shRNA

With “shB4galt5: lentivirus-delivered shRNA against b4galt5 (TRCN0000018782; SEQ ID NO:2) (guide GCAGCCTGAATGACTCAGATTCTCGAGAATCTGAGTCATTCAGGCTGC)” the EAE disease progression (EAE NOD mice) was “but not of b4galt5, suppressed disease progression”, the “CNS LacCer levels” value (B4GALT5/6) was “but not of b4galt5, led to a significant decrease of CNS LacCer levels” and the “b4galt6 and b4galt5 expression in astrocytes” value (astrocytes) was “astrocyte-specific knock-down”. For the same substance, the “up-regulation of h2-Aa, ccl5 and cxcl10 expression” value (C8-D30 astrocytes) was “did not affect the expression”.
